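A five-concentration, 48-hour dose response in 96-well plates underlies each endpoint, interpolated linearly between surrounding concentrations. GI50 = concentration required for 50% inhibition of growth. TGI: total growth inhibition.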
How the values were obtained:
Test in all cases: inhibition of tumour cell growth, NCI panel, 48 h
EKVX NSCLC = tested on: EKVX NSCLC
NCI-H226 lung = tested on: NCI-H226 lung
RPMI-8226 leukemia = tested on: RPMI-8226 leukemia
HOP-92 NSCLC = tested on: HOP-92 NSCLC
SN12C renal = tested on: SN12C renal
DU-145 prostate = tested on: DU-145 prostate
BT-549 breast = tested on: BT-549 breast
KM12 colon = tested on: KM12 colon
NCI-H23 lung = tested on: NCI-H23 lung
MALME-3M melanoma = tested on: MALME-3M melanoma

| SMILES | GI50 (EKVX NSCLC) [µM] | TGI (EKVX NSCLC) [µM] | GI50 (NCI-H226 lung) [µM] | TGI (NCI-H226 lung) [µM] | GI50 (RPMI-8226 leukemia) [µM] | TGI (RPMI-8226 leukemia) [µM] | GI50 (HOP-92 NSCLC) [µM] | TGI (HOP-92 NSCLC) [µM] | GI50 (SN12C renal) [µM] | TGI (SN12C renal) [µM] | GI50 (DU-145 prostate) [µM] | TGI (DU-145 prostate) [µM] | GI50 (BT-549 breast) [µM] | TGI (BT-549 breast) [µM] | GI50 (KM12 colon) [µM] | TGI (KM12 colon) [µM] | GI50 (NCI-H23 lung) [µM] | TGI (NCI-H23 lung) [µM] | TGI (MALME-3M melanoma) [µM] | GI50 (MALME-3M melanoma) [µM] |
| --- | --- | --- | --- | --- | --- | --- | --- | --- | --- | --- | --- | --- | --- | --- | --- | --- | --- | --- | --- | --- |
| CCSc1nc(N)c(C#N)c(-c2ccco2)c1C#N | 25.4 | > 100 | 29.9 | > 100 | 12.2 | 42.4 | 5.85 | 45.5 | > 100 | > 100 | 42.6 | > 100 | 32.3 | > 100 | 27.4 | > 100 | 53.2 | > 100 | – | – |
| CC(=O)NNc1nc(C)c(C(=O)/C=C/c2ccc(/C=C/C(=O)c3sc(NNC(C)=O)nc3C)cc2)s1 | – | > 100 | – | > 100 | – | – | – | – | – | > 100 | – | – | – | – | – | > 100 | – | > 100 | > 100 | – |
| NC(=O)C12CC3CC(CC(Br)(C3)C1)C2 | – | > 100 | – | – | – | > 100 | – | > 100 | – | > 100 | – | – | – | – | – | > 100 | – | > 100 | – | – |
| CC(C)=Nn1cnc(C(=N)C#N)c1N | – | > 100 | – | > 100 | – | > 100 | – | – | – | – | – | > 100 | – | > 100 | – | – | – | > 100 | > 100 | – |
| [N-]=[N+]=NC[C@H]1OCO[C@H](CN=[N+]=[N-])[C@H]2OCCOCCOc3ccccc3OCCOCCO[C@@H]21 | – | > 100 | – | > 100 | – | > 100 | – | – | – | > 100 | – | > 100 | – | > 100 | – | > 100 | – | > 100 | > 100 | – |
| COC(=O)/C(C#N)=C1\CCc2ccccc21 | – | > 100 | – | > 100 | – | > 100 | – | > 100 | – | > 100 | – | – | – | – | – | > 100 | – | > 100 | > 100 | – |
| CCCCc1c2c(nc3c1CCc1cc4cc5c(nc4nc1-3)-c1nc3c(c(CCCC)c1CC5)CCC/C3=C\c1ccccc1)/C(=C/c1ccccc1)CCC2 | – | > 100 | – | > 100 | – | > 100 | – | – | – | > 100 | – | – | – | – | – | > 100 | – | > 100 | > 100 | – |
| Cc1ccc(NC(=O)CC2SC(N)=NC2=O)cc1C (stereo not drawn) | – | – | – | > 100 | – | > 100 | – | > 100 | – | > 100 | – | – | – | – | – | > 100 | – | > 100 | > 100 | – |
| CCOP(=O)(OCC)C1(O)CC(n2cc(C)c(=O)[nH]c2=O)OC1CO (stereo not drawn) | – | > 100 | – | > 100 | – | > 100 | – | > 100 | – | > 100 | – | > 100 | – | – | – | > 100 | – | > 100 | > 100 | – |
| Nc1ncnc2c1nnn2C1C=C(CO)C(O)C1O (stereo not drawn) | – | > 100 | – | > 100 | – | > 62.7 | – | > 80.2 | – | > 82.7 | – | – | – | – | – | > 100 | – | > 100 | > 100 | – |
| CCOC(=O)C1=C(C)N2C(=NC3=C(CCC/C3=C\c3ccc(Cl)cc3)C2c2ccc(Cl)cc2)S1 (stereo not drawn) | 3.37 | 46.8 | 3.04 | 8.8 | 1.22 | 4.04 | – | – | 3.55 | 21.6 | 3.92 | 17.6 | 1.53 | 3.52 | 1.93 | 3.68 | 2.03 | 5.26 | 35.5 | 11.3 |

— PubChem BioAssay (NCI)
